Patent US20230084927A1, “GLUCOSE UPTAKE INHIBITORS AND USES THEREOF” (METABOMED LTD., priority 2019, published 2023)
Where two headings read alike, the source gives them in different places.

Legend:
SDH-WT cells = test: Cellular / differential toxicity assay (CellTiter-Glo, 3 days); format: cell-based, murine; settings: Mus musculus, 72 h, SDH-WT cells
In short: (§1)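 Isogenic SDHB-deficient (HRAS-transformed SDH-KO) and SDH-WT cells grown in DMEM-F12 with 1 mM glutamine and 3% FBS, plated with compound (10-point dilution from 10 uM to 0.0065 uM or lower) for 3 days at 37 °C, 5% CO2. Viability by CellTiter-Glo luminescence; EC50 calculated.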

[1] = system: SDH-KO-HRAS cells (SDHB-deficient); test: as above; format: cell-based, murine; settings: for EC50: Mus musculus, 72 h, SDH-KO cells
In short: as §1

[2] = system: SDH-KO cells (SDH-deficient tumors); test: Tumor volume of SDH-KO cells vs. time in mice on ketogenic diet; format: in vivo; settings: treated two weeks post-injection, prior to tumor formation
From the text: FIG. 10 depicts the tumor volume of SDH-KO cells vs. time in mice on ketogenic diet, treated for two weeks post-injection, but prior to tumor formation.

[3] = Glucose levels and Maximum Tolerated Dose in mice at different diets; format: in vivo
From the text: Glucose Levels as Measured in Mice after Different Dosages of Compound 111 at Different Diets.

[4] = Plasma glucose levels in mice after oral administration; format: in vivo; settings: 2 mg/Kg
Procedure: FIG. 8 depicts the glucose levels in mice plasma after oral administration of 2 mg/Kg of compound 111. Compound 111 at 2 mg/kg was orally administrated to mice. Blood samples were taken at different time points thereafter and Glucose level was determined.

[5] = system: Panc1 (Pancreatic cancer); test: Toxicity assay with or without rotenone; format: cell-based; settings: Homo sapiens, PANC-1, 72 hours
Procedure: (§2) Toxicity assay: Cells were growing in 96 well plates in DMEM F12 with 17 mM glucose, 0.5 mM Sodium Pyruvate, 1 mM Glutamine and 3% FBS. The cells were treated with the indicated compounds (10 different concentrations) with or without 25 nM rotenone. Viability was determined after 72 hours of treatment using CellTiter Glo reagent (Promega). EC50 was calculated using Prism software.

HCT116 (Colon cancer) = test: Toxicity assay with or without rotenone; format: cell-based; settings: Homo sapiens, HCT-116, 72 hours
Procedure: as §2

[6] = system: MDA-MB-468 (Breast cancer); test: Toxicity assay with or without rotenone; format: cell-based; settings: Homo sapiens, 72 hours
Procedure: as §2

[7] = system: MiaPaca2 (Pancreatic cancer); test: Toxicity assay with or without rotenone; format: cell-based; settings: Homo sapiens, MIA PaCa-2, 72 hours
Procedure: as §2

MM.1S (Multiple myeloma) = test: Toxicity assay with or without rotenone; format: cell-based; settings: Homo sapiens, MM1.S, 72 hours
Procedure: as §2

[8] = system: m+3 lactate secretion (glycolysis) in SDH-KO cells; test: Glycolysis inhibition (IC50 Lactate m+3); format: cell-based; settings: 1 h, 25 mM 13C-glucose, one hour
Procedure: (§3) Glycolysis Inhibition (IC50 Lactate m+3)
(§4) Cell were plated in DMEM, 25 mM Glucose, 1 mM Pyruvate, 1 mM Glutamine and 10% Dialyzed serum in 96 well plates in triplicates. The day after the medium was replaced to fresh medium with 25 mM ^13C-glucose and treated with different concentrations of the compounds as indicated. One hour later the medium was collected and the level of m+3 lactate was determined by LC-MS. The IC50 of inhibition of m+3 lactate secretion into the medium was calculated with Prism.

[9] = system: m+3 lactate secretion (glycolysis) in SDH-WT cells; test: Glycolysis inhibition (IC50 Lactate m+3); format: cell-based; settings: 1 h, 25 mM 13C-glucose, one hour
Procedure: as §3, §4

[10] = PK profile (plasma and brain concentration); format: in vivo
Procedure: FIG. 14 describes the pharmacokinetics of compound 332.
FIG. 14A depicts the Mean Plasma Concentration of Compound 332 after IP7, IV bolus1 and PO2 Dosing. FIG. 14B depicts the Mean Brain Concentration of Compound 332 after IP Dosing at 2.50 mg/kg and FIG. 14C depicts the Mean Brain Concentration of Compound 332 after IV bolus Dosing at 2.50 mg/kg.

[11] = toxicity, 3 days, CellTiter-Glo, read-out: EC50 (uM) SDH-WT
[12] = toxicity, 3 days, CellTiter-Glo, read-out: EC50 (uM) SDH-KO-HTAS-C17
[13] = 72 hours, Example 7, read-out: EC50 Tox

Question: With CC(=O)Nc1ccc(CCNc2ncnc3c2sc2nc4c(cc23)COC(C)(C)C4)cc1 [Compound 111] as the compound, how does the EC50 (SDH-WT cells; [11]) read?
Answer: The EC50 was > 10 µM.

Question: What about the EC50 [1, 12] of the same compound?
Answer: Its EC50 is < 1000 nM.

Question: What about the “tumor onset and growth (tumor volume vs. time)” value [2] of the same compound?
Answer: Its value is “delays tumor onset and growth”.

Question: What about the “elevation in plasma glucose levels on ketogenic diet” value ([3]; ketogenic diet) of the same compound?
Answer: The value was “delayed”.

Question: And the “Maximum Tolerated Dose (MTD) on ketogenic diet” value ([3]; ketogenic diet vs other diet)?
Answer: The value was “doubled”.

Question: What about the “tolerability on ketogenic diet” value ([3]; ketogenic diet, two weeks of treatment) of the same compound?
Answer: The value was “up to 4 mg/Kg”.

Question: And the “level of glucose in the plasma” value [4]?
Answer: Its value is “increase”.

Question: What about the EC50 ([5]; Panc1, with 25 nM rotenone, read-out: EC50 (nM) with Rotenone) of the same compound?
Answer: The EC50 was 91 nM.

Question: And the EC50 ([5]; Panc1, without rotenone, read-out: EC50)?
Answer: Its EC50 is 136000 nM.

Question: What about the EC50 (HCT116 (Colon cancer); HCT116, with 25 nM rotenone, read-out: EC50 (nM) with Rotenone) of the same compound?
Answer: Its EC50 is 510 nM.

Question: What about the EC50 (HCT116 (Colon cancer); HCT116, without rotenone, read-out: EC50) of the same compound?
Answer: The EC50 was 9700 nM.

Question: What about the EC50 ([6]; MDA-MB-468, with 25 nM rotenone, read-out: EC50 (nM) with Rotenone) of the same compound?
Answer: Its EC50 is 1400 nM.

Question: What about the EC50 ([6]; MDA-MB-468, without rotenone, read-out: EC50) of the same compound?
Answer: The EC50 was > 30000 nM.

Question: And the EC50 ([7]; MiaPaca2, with 25 nM rotenone, read-out: EC50 (nM) with Rotenone)?
Answer: Its EC50 is 61 nM.

Question: And the EC50 ([7]; MiaPaca2, without rotenone, read-out: EC50)?
Answer: The EC50 was 37000 nM.

Question: And the EC50 (MM.1S (Multiple myeloma); with 25 nM rotenone, read-out: EC50 (nM) with Rotenone)?
Answer: The EC50 was 52 nM.

Question: What about the EC50 (MM.1S (Multiple myeloma); without rotenone, read-out: EC50) of the same compound?
Answer: The EC50 was 79000 nM.

Question: With COCc1c2c(nc3sc4c(NCCc5ccc6[nH]cnc6c5)ncnc4c13)CC(C)(C)OC2 [Compound 308, N-(2-(1H-Benzo[d]imidazol-5-yl)ethyl)-11-(methoxymethyl)-8,8-dimethyl-7,10-dihydro-8H-pyrano[3″,4″:5′,6′]pyrido[3′,2′:4,5]thieno[3,2-d]pyrimidin-4-amine] as the compound, how does the EC50 (SDH-WT cells; [13]) read?
Answer: The EC50 was 2.17 µM.

Question: What about the EC50 (SDH-WT cells; [11]) of the same compound?
Answer: Its EC50 is 1 to 3 µM.

Question: What about the EC50 [1, 13] of the same compound?
Answer: Its EC50 is 0.004 nM.

Question: What about the EC50 [1, 12] of the same compound?
Answer: Its EC50 is < 1000 nM.

Question: What about the “differential effect between SDH-WT and KO cells (EC50 Tox)” value ([1]; cell viability, Example 7) of the same compound?
Answer: The value was > 500,000 folds.

Question: What about the IC50 [8] of the same compound?
Answer: Its IC50 is 0.03 nM.

Question: What about the IC50 [9] of the same compound?
Answer: The IC50 was 0.15 nM.

Question: With COCCOCc1c2c(nc3sc4c(NCCc5ccc6[nH]cnc6c5)ncnc4c13)CC(C)(C)OC2 [Compound 332] as the compound, how does the oral bioavailability ([10]; PO dosing vs IV bolus, plasma) read?
Answer: Its oral bioavailability is “low”.

Question: What about the brain penetration ([10]; brain concentration after IP and IV bolus dosing at 2.50 mg/kg) of the same compound?
Answer: Its brain penetration is “brain penetrant”.

Question: And the EC50 (SDH-WT cells; [11])?
Answer: The EC50 was 1 to 3 µM.

Question: What about the EC50 [1, 12] of the same compound?
Answer: Its EC50 is < 1000 nM.

Question: And the “differential toxicity, SDH-KO cells compared to SDH-WT cells” value ([1]; viability EC50s, 72 hours, Example 6)?
Answer: The value was 235.
